Data published in ChEMBL document CHEMBL1151563, “Synthesis of sialic acid-lipid conjugates and their neuritogenic effects on N1E.115 neuroblastoma cells” (1995).

What was measured:
N1E-115 [1] = test: Effect of compound on neurite outgrowth by measuring presence of cytoskeletal component in neurofilament (NF) ELISA assay at 1 uM; value ranges from 95-105; assay type: functional, Mus musculus
N1E-115 [2] = test: In neutral red (NR) assay the cell number relative to control was determined at 3 uM; value ranges from 65-75; assay type: functional, Mus musculus
N1E-115 [3] = test: Neuritogenic activity of compound was determined at 3 uM; value ranges from 105-115; assay type: functional, Mus musculus
[4] = NF/NR ratio is average amount of neurofilament per cell was determined at 1 uM; value ranges from 95-105; assay type: functional
N1E-115 [5] = test: In neutral red (NR) assay the cell number relative to control was determined at 1 uM; value ranges from 95-105; assay type: functional, Mus musculus
N1E-115 [6] = test: Neuritogenic activity of compound was determined at 1 uM; value ranges from 95-105; assay type: functional, Mus musculus
[7] = NF/NR ratio is average amount of neurofilament per cell was determined at 3 uM; value ranges from 105-115; assay type: functional
N1E-115 [8] = test: Effect of compound on neurite outgrowth by measuring presence of cytoskeletal component in neurofilament (NF) ELISA assay at 3 uM; value ranges from 75-85; assay type: functional, Mus musculus
N1E-115 [9] = test: Effect of compound on neurite outgrowth by measuring presence of cytoskeletal component in neurofilament (NF) ELISA assay at 3 uM; value ranges from 95-105; assay type: functional, Mus musculus
N1E-115 [10] = test: Neuritogenic activity of compound was determined at 3 uM; value ranges from 115-125; assay type: functional, Mus musculus
[11] = NF/NR ratio is average amount of neurofilament per cell was determined at 1 uM; value ranges from 105-115; assay type: functional
N1E-115 [12] = test: Neuritogenic activity of compound was determined at 1 uM; value ranges from 105-115; assay type: functional, Mus musculus
N1E-115 [13] = test: In neutral red (NR) assay the cell number relative to control was determined at 3 uM; value ranges from 75-85; assay type: functional, Mus musculus
N1E-115 [14] = test: In neutral red (NR) assay the cell number relative to control was determined at 1 uM; value ranges from 75-85; assay type: functional, Mus musculus
[15] = NF/NR ratio is average amount of neurofilament per cell was determined at 3 uM; value ranges from 115-125; assay type: functional
[16] = NF/NR ratio is average amount of neurofilament per cell was determined at 3 uM; value ranges from 125-135; assay type: functional
N1E-115 [17] = test: Neuritogenic activity of compound was determined at 3 uM; value ranges from 125-135; assay type: functional, Mus musculus
[18] = NF/NR ratio is average amount of neurofilament per cell was determined at 3 uM; value ranges from 95-105; assay type: functional
N1E-115 [19] = test: Neuritogenic activity of compound was determined at 3 uM; value ranges from 95-105; assay type: functional, Mus musculus

Which results are given for CC(=O)NC1C(O)CC(OC2CC[C@@]3(C)C(=CCC4[C@@H]5CC[C@H]([C@@H](C)CCCC(C)C)[C@@]5(C)CC[C@@H]43)C2)(C(=O)[O-])OC1[C@@H](O)[C@H](O)CO.[Na+] (some centres undefined)?
Activity (N1E-115 [1]): 95%; Activity (N1E-115 [2]): 65%; Activity (N1E-115 [3]): 105%; Ratio [4]: 95; Activity (N1E-115 [5]): 95%; Activity (N1E-115 [6]): 95%; Ratio [7]: 105; Activity (N1E-115 [8]): 75%

For CCCCCCCCCCCCCCCCOCOCCCO[C@]1(C(=O)O)C[C@@H](O)[C@@H](NC(C)=O)C([C@@H](O)[C@H](O)CO)O1 (some centres undefined), which Activity (N1E-115 [9]) is on record?
Its Activity is 95%.

What about the Activity (N1E-115 [1]) of the same compound?
Its Activity is 95%.

And the Activity (N1E-115 [3])?
Its Activity is 105%.

And the Ratio [4]?
The Ratio was 95.

What about the Activity (N1E-115 [5]) of the same compound?
Its Activity is 95%.

And the Activity (N1E-115 [6])?
The Activity was 95%.

And the Ratio [7]?
Its Ratio is 105.

For CC(=O)NC1C(O)CC(OCCCOCOC2CC[C@@]3(C)C(=CCC4[C@@H]5CC[C@H]([C@@H](C)CCCC(C)C)[C@@]5(C)CC[C@@H]43)C2)(C(=O)[O-])OC1[C@@H](O)[C@H](O)CO.[Na+] (some centres undefined), which Activity (N1E-115 [9]) is on record?
Its Activity is 95%.

And the Activity (N1E-115 [1])?
The Activity was 95%.

What about the Activity (N1E-115 [10]) of the same compound?
Its Activity is 115%.

And the Ratio [11]?
Its Ratio is 105.

What about the Activity (N1E-115 [12]) of the same compound?
Its Activity is 105%.

What about the Activity (N1E-115 [13]) of the same compound?
Its Activity is 75%.

And the Activity (N1E-115 [14])?
The Activity was 75%.

And the Ratio [15]?
Its Ratio is 115.

Which results are given for CCCCCCCCCCCCCCCCOC1(C(=O)[O-])CC(O)C(NC(C)=O)C([C@@H](O)[C@H](O)CO)O1.[Na+] (some centres undefined)?
Activity (N1E-115 [9]): 95%; Activity (N1E-115 [1]): 95%; Ratio [11]: 105; Activity (N1E-115 [3]): 105%; Activity (N1E-115 [12]): 105%; Activity (N1E-115 [13]): 75%; Ratio [7]: 105; Activity (N1E-115 [14]): 75%

For CC(=O)NC1C(O)CC(OCCCOCOCC(COCOCCCOC2(C(=O)[O-])CC(O)C(NC(C)=O)C([C@@H](O)[C@H](O)CO)O2)(COCOCCCOC2(C(=O)[O-])CC(O)C(NC(C)=O)C([C@@H](O)[C@H](O)CO)O2)CO[C@H]2CCC3(C)C(=CCC4[C@@H]3CCC3(C)[C@@H](C(C)CCCC(C)C)CC[C@@H]43)C2)(C(=O)[O-])OC1[C@@H](O)[C@H](O)CO.[Na+].[Na+].[Na+] (some centres undefined), which Activity (N1E-115 [9]) is on record?
The Activity was 95%.

And the Activity (N1E-115 [1])?
Its Activity is 95%.

What about the Ratio [11] of the same compound?
Its Ratio is 105.

And the Ratio [16]?
The Ratio was 125.

What about the Activity (N1E-115 [12]) of the same compound?
Its Activity is 105%.

And the Activity (N1E-115 [13])?
The Activity was 85%.

And the Activity (N1E-115 [17])?
The Activity was 125%.

With CC(C)CCC[C@@H](C)[C@H]1CCC2C3CC=C4CC(C(C(=O)O)C(=O)O)CC[C@]4(C)C3CC[C@@]21C (some centres undefined) as the compound, how does the Activity (N1E-115 [9]) read?
The Activity was 95%.

What about the Activity (N1E-115 [1]) of the same compound?
Its Activity is 95%.

And the Ratio [18]?
The Ratio was 95.

What about the Ratio [4] of the same compound?
The Ratio was 95.

What about the Activity (N1E-115 [19]) of the same compound?
The Activity was 95%.

What about the Activity (N1E-115 [6]) of the same compound?
The Activity was 95%.
